pIC50: −log10 of the molar value.
Key:
[1] = tested on: CD-1 (Crl.) derived male mice; assay: Phorbol Ester Induced Mouse Ear Edema Model; type: in vivo; settings: topical, 6 h, 95% Ethanol, ear swelling 6 hours after PMA; for inhibition in vivo at 0.02 mg: 0.02 mg/ear × 2 topical; for inhibition in vivo at 0.06 mg: 0.06 mg/ear × 2 topical; for inhibition in vivo at 0.2 mg: 0.2 mg/ear × 2 topical
Procedure: 1. In Vivo Anti-Inflammation Activity in Phorbol Ester Induced Mouse Ear Edema Model
[…] Dexamethasone (1 mg/ear×2) used as the positive control was administered topically to test animals using the same application schedule. Ear swelling was then measured by a Dyer model micrometer gauge at 6 hours after PMA application as an index of inflammation. Percent inhibition was calculated according to the formula: [(Ic−It)/Ic]×100%, where Ic and It refer to increase of ear thickness (mm) in control and treated mice, respectively.

IL-10 = assay: Cytokine assay, IL-10 release from PBMC; type: cell-based; settings: human PBMC, 20 ug/mL PHA, supernatant at 48 hours
Procedure, shortened: (§1)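 Cytokine released into the medium was the read-out. Thawed human peripheral blood mononuclear cells in RPMI 1640/10% FBS received test article at 0.01–10 μM, in triplicate wells.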

TNF-α = assay: Cytokine assay, TNF-α release from PBMC; type: cell-based; settings: Homo sapiens, PBMC, 24 h, 1 μg/mL LPS, supernatant at 24 hours
Procedure, shortened: as §1

IL-2 = assay: Cytokine assay, IL-2 release from PBMC; type: cell-based; settings: human PBMC, 20 ug/mL PHA, supernatant at 24 hours
Procedure, shortened: as §1

[2] = tested on: T1, PDE4 partially purified from human U-937 myeloid leukemia cells; assay: PDE4 Assay (enzyme from U-937 cells, [3H]cAMP); type: biochemical; settings: PDE4 from U-937 cells, Tris buffer pH 7.5, 20 minutes at 25° C.
T1 construct: PDE4 partially purified from human U-937 myeloid leukemia cells was used

IFN-γ = assay: Cytokine assay, IFN-γ release from PBMC; type: cell-based; settings: human PBMC, 20 ug/mL PHA, supernatant at 24 hours
Procedure, shortened: as §1

IL-5 = assay: Cytokine assay, IL-5 release from PBMC; type: cell-based; settings: human PBMC, 20 ug/mL PHA, supernatant at 48 hours
Procedure, shortened: as §1

BALB/c male mice = assay: Oxazolone Induced Mouse Ear Edema Model; type: in vivo; settings: for inhibition in vivo at 1 mg: 1 mg/ear × 2 topical, Acetone:Ethanol/1:1, ear thickness 24 hours after second oxazolone application
Procedure: 2. In Vivo Anti-Inflammation Activity in Oxazolone Induced Mouse Ear Edema Model
Groups of 5 BALB/c male mice weighing 23±2 g were used. The preshaved abdomens of test animals were sensitized by application of 100 μl, of 1.5% oxazolone solution dissolved in acetone. Seven days after the initial sensitization, test substances, as well as vehicle (acetone:ethanol/1:1, 20 μL/ear) were each administered topically to the anterior and posterior surfaces of the right ear 30 minutes before, and 15 minutes after, challenge by a second application of oxazolone (1% in acetone, […]) via topical route. As a positive control, indomethacin (0.3 mg/ear×2) was administered topically using the same treatment regime as for the test compounds. Twenty-four hours after the second application of oxazolone, the ear thickness of each mouse was measured with a Dyer model micrometer gauge. A 30 percent or more inhibition in ear swelling relative to the vehicle control was considered significant and indicated possible anti-inflammatory activity.

`CN(C)c1nc(Oc2ccc3c(c2)COB3O)ccc1C#N` [D95, 2-Dimethylamino-6-(1-hydroxy-1,3-dihydro-benzo[c][1,2]oxaborol-5-yloxy)-nicotinonitrile] gave an inhibition in vivo at 0.02 mg [1] of under 30%, an inhibition in vivo at 0.06 mg [1] of under 30% and an inhibition in vivo at 0.2 mg [1] of under 30%. For the same compound, the pIC50 (IL-10) was 5.40 to 6.00, the pIC50 (TNF-α) was over 6.00 and the pIC50 (IL-2) was over 6.00. For the same compound, the pIC50 [2] was over 6.00, the pIC50 (IFN-γ) was over 6.00 and the pIC50 (IL-5) was over 6.00.

`COCCN(C)c1nc(Oc2ccc3c(c2)COB3O)ccc1C#N` [D96, 6-(1-hydroxy-1,3-dihydro-benzo[c][1,2]oxaborol-5-yloxy)-2-[(2-methoxy-ethyl)-methyl-amino]-nicotinonitrile] was tested, and the inhibition in vivo at 1 mg (BALB/c male mice) was under 20%, the pIC50 (IL-10) was 5.40 to 6.00 and the pIC50 (TNF-α) was over 6.00. It also gave a pIC50 (IL-2) of over 6.00, a pIC50 [2] of over 6.00 and a pIC50 (IFN-γ) of over 6.00. The pIC50 (IL-5) was 5.40 to 6.00.

In the case of `CN(CCO)c1ccc(C#N)c(Oc2ccc3c(c2)COB3O)n1` [D98, 2-(1-hydroxy-1,3-dihydro-benzo[c][1,2]oxaborol-5-yloxy)-6-[(2-hydroxy-ethyl)-methyl-amino]-nicotinonitrile], the inhibition in vivo at 0.02 mg [1] was under 30%, the inhibition in vivo at 0.06 mg [1] was under 30% and the inhibition in vivo at 0.2 mg [1] was 30 to 60%. For the same compound, the pIC50 (IL-10) was over 6.00, the pIC50 (TNF-α) was over 6.00 and the pIC50 (IL-2) was over 6.00. It also gave a pIC50 [2] of over 6.00, a pIC50 (IFN-γ) of over 6.00 and a pIC50 (IL-5) of over 6.00.

Work on `N#Cc1ccc(Oc2ccc3c(c2)COB3O)nc1OC1CCCC1` [D100, 2-Cyclopentyloxy-6-(1-hydroxy-1,3-dihydro-benzo[c][1,2]oxaborol-5-yloxy)-nicotinonitrile] yielded an inhibition in vivo at 0.028 mg ([1]; 0.028 mg/ear × 2 topical) of under 30%, an inhibition in vivo at 0.28 mg ([1]; 0.28 mg/ear × 2 topical) of 30 to 60% and a pIC50 (IL-10) of over 6.00. It also gave a pIC50 (TNF-α) of over 6.00, a pIC50 (IL-2) of over 6.00 and a pIC50 [2] of over 6.00. The pIC50 (IFN-γ) was over 6.00 and the pIC50 (IL-5) was over 6.00.

For `COCCNc1ccc(C#N)c(Oc2ccc3c(c2)COB3O)n1` [D101, 2-(1-Hydroxy-1,3-dihydro-benzo[c][1,2]oxaborol-5-yloxy)-6-(2-methoxy-ethylamino)-nicotinonitrile], the inhibition in vivo at 0.8 mg ([1]; 0.8 mg/ear × 2 topical) was under 30%, the inhibition in vivo at 2.4 mg ([1]; 2.4 mg/ear × 2 topical) was under 30% and the pIC50 (IL-10) was 5.40 to 6.00. It also gave a pIC50 (TNF-α) of over 6.00, a pIC50 (IL-2) of over 6.00 and a pIC50 [2] of over 6.00. For the same compound, the pIC50 (IFN-γ) was over 6.00 and the pIC50 (IL-5) was over 6.00.

In the case of `COc1cc(Oc2ccc3c(c2)COB3O)ncc1C#N` [D109, 6-(1-Hydroxy-1,3-dihydro-benzo[c][1,2]oxaborol-5-yloxy)-4-methoxy-nicotinonitrile], the inhibition in vivo at 0.02 mg [1] was under 30%, the inhibition in vivo at 0.067 mg ([1]; 0.067 mg/ear × 2 topical) was under 30% and the inhibition in vivo at 0.2 mg [1] was under 30%. It also gave a pIC50 (IL-10) of over 6.00, a pIC50 (TNF-α) of over 6.00 and a pIC50 (IL-2) of over 6.00. It also gave a pIC50 [2] of over 6.00, a pIC50 (IFN-γ) of over 6.00 and a pIC50 (IL-5) of over 6.00.

For `CNc1nc(Oc2ccc3c(c2)COB3O)ccc1C#N` [D110, 6-(1-Hydroxy-1,3-dihydro-benzo[c][1,2]oxaborol-5-yloxy)-2-methylamino-nicotinonitrile], the inhibition in vivo at 0.02 mg [1] was under 30%, the inhibition in vivo at 0.06 mg [1] was under 30% and the inhibition in vivo at 0.2 mg [1] was under 30%. The pIC50 (IL-10) was under 5.00, the pIC50 (TNF-α) was over 6.00 and the pIC50 (IL-2) was over 6.00. The pIC50 [2] was over 6.00, the pIC50 (IFN-γ) was over 6.00 and the pIC50 (IL-5) was over 6.00.

With `COc1nc(Oc2cc3c(cc2F)B(O)OC3)ccc1C#N` [D122, 6-(6-Fluoro-1-hydroxy-1,3-dihydrobenzo[c][1,2]oxaborol-5-yloxy)-2-methoxynicotinonitrile] the inhibition in vivo at 1 mg (BALB/c male mice) was under 20%, the pIC50 (IL-10) was over 6.00 and the pIC50 (TNF-α) was over 6.00. For the same compound, the pIC50 (IL-2) was over 6.00, the pIC50 [2] was over 6.00 and the pIC50 (IFN-γ) was over 6.00. The pIC50 (IL-5) was over 6.00.

`COc1ccc2c(c1)c(CC(=O)O)c(C)n2C(=O)c1ccc(Cl)cc1` [Indomethacin, indomethacin, reference compound] gave an inhibition in vivo at 0.3 mg (BALB/c male mice; 0.3 mg/ear × 2 topical, 95% Ethanol, ear thickness 24 hours after second oxazolone application) of 40 to 60%.
